This is an account of results in US9061030B2, “sGC stimulators” (IRONWOOD PHARMACEUTICALS, INC., priority 2010, dated 2015).

The assay deals with Thoracic aortic rings. The assay can be described thus: Thoracic aortic rings assay. On the set-up: species or system rat. To be noted: for inhibition at 1 µM: 1 μM compound, read-out: Percent Relaxation at 1 μM; for inhibition at 1 µM / inhibition at 3 µM / inhibition at 10 µM: rat thoracic aortic rings contracted with 100 ng/mL phenylephrine; for inhibition at 3 µM: 3 μM compound, read-out: Percent Relaxation at 3 μM; for inhibition at 10 µM: 10 μM compound, read-out: Percent Relaxation at 10 μM; for EC50: relaxation of rat thoracic aortic rings contracted with 100 ng/mL phenylephrine, read-out: Aortic Ring EC50. As for the experimental part: Thoracic aortic rings were dissected from anesthetized (isoflurane) male Sprague-Dawley rats weighing 275-299 g. Tissues were immediately transferred to ice-cold Krebs-Henseleit solution, which had been aerated with 95% O2 and 5% CO2 for 30 minutes. Following removal of connective tissue, aortic sections were cut into 4 rings (˜2 mm each) and suspended on 2 L-shaped hooks, with one hook fixed at the bottom of the tissue bath (Schuler Organ Bath, Harvard Apparatus) and the other connected to a force transducer (F30 Force Transducer, Harvard Apparatus). Baths contained Krebs Henseleit solution (10 mL) heated to 37° C. and aerated with 95% O2 and 5% CO2. Rings were brought to an initial tension of 0.3-0.5 g and gradually raised to a resting tension of 1.0 g over 60 minutes. Rings were rinsed with Krebs Henseleit solution (heated to 37° C. and aerated with 95% 02 and 5% CO2) at 15 minute intervals until a stable baseline was obtained. Rings were considered to be stable after a resting tension of 1.0 g was maintained (for approximately 10 minutes) without need for adjustment. Rings were then contracted with 100 ng/mL phenylephrine by adding 100 μL of a 10 μg/mL phenylephrine stock solution. Tissues achieving a stable contraction were then treated in a cumulative, dose dependent manner with test compounds prepared in dimethylsulfoxide (DMSO). In some cases, tissues were rinsed three times over a 5 minute period with Krebs-Heinseleit's solution (heated to 37° C. and aerated with 95% 02 and 5% CO2), allowed to stabilize at baseline, and then used for characterization of other test articles or DMSO effects. All data were collected using the HSE-ACAD software provided by Harvard Apparatus. Percent relaxation effects were calculated in Microsoft Excel using the recorded tension value of 100 ng/mL phenylephrine treatment as 0% inhibition and, after washing the tissue with buffer, the original resting tension of tissue is used as 100% inhibition. EC50 values were calculated from concentration-response curves generated with GraphPad Prism Software.
The biological data for some of the compounds of Formula IA and Formula IB, in comparison with the prior art compound, BAY 41-2272, as the reference compound, determined by the thoracic aorta ring assay are presented in Table 6 below.

On to `Fc1ccccc1Cn1nc(-c2ncccn2)nc1-c1cocn1` [Compound I-46], for which the inhibition at 1 µM lay within 20 to 40%, the inhibition at 3 µM fell in the range of 60 to 80%, the inhibition at 10 µM lay in the range of 80 to 100% and the EC50 (commonly the concentration at which the effect is half-maximal) is 2000 to 3000 nM.

For the compound `Nc1ccnc(-c2nc(-c3nccs3)n(Cc3ccccc3F)n2)c1` [Compound I-44], the inhibition at 1 µM lay within 80 to 100%, the inhibition at 3 µM is 100 to 120%, the inhibition at 10 µM lay in the range of 100 to 120% and the concentration for a half-maximal effect (EC50) was under 1000 nM.

In the case of `Fc1ccc(-c2nc(-c3nccs3)n(Cc3ccccc3F)n2)nc1` [Compound I-38], the inhibition at 1 µM is 40 to 60%, the inhibition at 3 µM is 80 to 100%, the inhibition at 10 µM was in the range of 100 to 120% and the EC50 was in the range of 1000 to 2000 nM.

For `Nc1ccnc(-c2nc(-c3nccs3)n(Cc3ccccc3F)n2)n1` [Compound I-48, 2-(1-(2-fluorobenzyl)-5-(thiazol-2-yl)-1H-1,2,4-triazol-3-yl)pyrimidin-4-amine], the inhibition at 1 µM is 40 to 60%, the inhibition at 3 µM is 80 to 100%, the inhibition at 10 µM lay within 100 to 120% and the EC50 is 1000 to 2000 nM.

Turning to `Nc1ccnc(-c2nc(-c3cscn3)n(Cc3ccccc3F)n2)c1` [Compound I-53, 2-(1-(2-fluorobenzyl)-5-(thiazol-4-yl)-1H-1,2,4-triazol-3-yl)pyridin-4-amine], the inhibition at 1 µM was 20 to 40%, the inhibition at 3 µM lay in the range of 80 to 100%, the inhibition at 10 µM lay in the range of 100 to 120% and the half-maximal effective concentration (EC50) was in the range of 1000 to 2000 nM.

As for `Fc1ccccc1Cn1nc(-c2ccccn2)nc1-c1cscn1` [Compound I-4], the inhibition at 1 µM was 60 to 80%, the inhibition at 3 µM is 100 to 120% and the EC50 is under 1000 nM.

`Fc1ccccc1Cn1nc(-c2ccccn2)nc1-n1cncn1` [Compound I-50, 2′-(2-fluorobenzyl)-5′-(pyridin-2-yl)-2′H-1,3′-bi(1′,2′,4-triazole)]: the inhibition at 1 µM lay in the range of 10 to 20%, the inhibition at 3 µM lay in the range of 20 to 40% and the inhibition at 10 µM lay in the range of 60 to 80%.

In the case of `Fc1ccccc1Cn1nc(-c2cscn2)nc1-c1nccs1` [Compound I-40], the inhibition at 1 µM is 20 to 40%, the inhibition at 3 µM was 60 to 80%, the inhibition at 10 µM lay in the range of 100 to 120% and the EC50 fell in the range of 1000 to 2000 nM.

As for `Fc1ccccc1Cn1nc(-c2nccs2)nc1-c1cscn1` [Compound I-41], the inhibition at 1 µM is 80 to 100%, the inhibition at 3 µM was 100 to 120%, the inhibition at 10 µM was 100 to 120% and the EC50 is under 1000 nM.

As for `Fc1ccccc1Cn1nc(-c2ccccn2)nc1-c1nccs1` [Compound I-25], the inhibition at 1 µM is 40 to 60%, the inhibition at 3 µM lay in the range of 80 to 100%, the inhibition at 10 µM lay in the range of 100 to 120% and the concentration for a half-maximal effect (EC50) is under 1000 nM.

Regarding `COC(=O)N(C)c1c(N)nc(-c2nc(-c3nccs3)n(Cc3ccccc3F)n2)nc1N` [Compound I-61, methyl 4,6-diamino-2-(1-(2-fluorobenzyl)-5-(thiazol-2-yl)-1H-1,2,4-triazol-3-yl)pyrimidin-5-yl(methyl)carbamate], the inhibition at 1 µM lay in the range of 60 to 80%, the inhibition at 3 µM lay within 80 to 100% and the EC50 was under 1000 nM.

Consider `Fc1ccccc1Cn1nc(-c2ccccn2)nc1-c1cocn1` [Compound I-12, 4-(1-(2-fluorobenzyl)-3-(pyridin-2-yl)-1H-1,2,4-triazol-5-yl)oxazole], for which the inhibition at 1 µM fell in the range of 40 to 60%, the inhibition at 3 µM fell in the range of 80 to 100%, the inhibition at 10 µM lay in the range of 100 to 120% and the EC50 was under 1000 nM.

Turning to `Fc1ccccc1Cn1nc(-c2ncccn2)nc1-c1cscn1` [Compound I-3], the inhibition at 1 µM was 40 to 60%, the inhibition at 3 µM is 80 to 100%, the inhibition at 10 µM lay within 100 to 120% and the EC50 was in the range of 1000 to 2000 nM.

As to `Fc1ccccc1Cn1nc(-c2ccccn2)nc1-c1ccccn1` [Compound I-1], the inhibition at 1 µM lay in the range of 20 to 40%, the inhibition at 3 µM lay within 60 to 80%, the inhibition at 10 µM lay in the range of 100 to 120% and the EC50 was in the range of 1000 to 2000 nM.

For the compound `Fc1ccccc1Cn1nc(-c2ccccn2)nc1-c1ncco1` [Compound I-6], the inhibition at 1 µM was 20 to 40%, the inhibition at 3 µM lay in the range of 60 to 80%, the inhibition at 10 µM is 100 to 120% and the EC50 was 1000 to 2000 nM.

For `Fc1ccccc1Cn1nc(-c2ncccn2)nc1-c1nccs1` [Compound I-30], the inhibition at 1 µM was 20 to 40%, the inhibition at 3 µM is 60 to 80%, the inhibition at 10 µM lay within 100 to 120% and the half-maximal effective concentration (EC50) was 2000 to 3000 nM.
